Calls of active or inactive are those of the source. The calls are words filed in the database; no cut-off is given here.
Columns and labels:
NCI-H441 [1] = test: Cytotoxicity against human H441 cells after 72 hrs by trypan blue cell exclusion assay; type: functional, cell-based
[2] = Cytotoxicity in human H441 cells at 2 uM after 72 hrs by trypan blue cell exclusion assay; type: functional, NCI-H441
NCI-H441 [3] = test: Cytotoxicity against human H441 cells by serum lactate dehydrogenase assay; type: functional, cell-based
NCI-H441 [4] = test: Cytotoxicity against human H441 cells by glucosaminidase assay; type: functional, cell-based

SMILES: NNc1ccc(C(=O)Nc2ccn([C@@H]3O[C@H](CO)[C@@H](O)[C@@H]3O)c(=O)n2)cn1
- Activity (NCI-H441 [1]): Dose-dependent effect
- Activity [2]: 55%
- Activity (NCI-H441 [3]): Active
- Activity (NCI-H441 [4]): Active

SMILES: Nc1ccn([C@@H]2O[C@H](CO)[C@@H](O)[C@@H]2O)c(=O)n1 [CYTARABINE]
- Activity (NCI-H441 [1]): Dose-dependent effect
- Activity [2]: 55%
- Activity (NCI-H441 [3]): Active
- Activity (NCI-H441 [4]): Active

Source: ChEMBL document CHEMBL1154024, “Synthesis of radiolabeled cytarabine conjugates” (2009)
